Measured values reported in patent US20240002383A1 (priority 2021, published 2024).
“Also recorded” adds a separate entry of the source.

Tests used:
SARS-CoV-2 pseudovirus = tested on: SARS-CoV-2 pseudovirus; design: species or system New Zealand white rabbits; conditions: rabbit, in vivo
[1] = tested on: IFNb, CXCL-10, CXCL-9, CCL-2, TNFα, IL-1β, and IL-6 in lymph nodes; assay: Innate immune response in mice after intramuscular injection of STING agonists (qPCR of cytokines in draining lymph nodes); assay type: in vivo; conditions: 20 μg intramuscular, 6 hrs
[2] = tested on: IFNγ, TNFα and IL-4 secretion; design: species or system mice; conditions: mouse, in vivo
HIV NHR trimer (N3G) = assay type: in vivo; conditions: mice, CF501 as adjuvant, sera 7 days after the second vaccination
[3] = tested on: cytokines in draining lymph nodes; conditions: mouse, in vivo

Structure (SMILES)	neutralizing antibodies relative to Alum (in words) (SARS-CoV-2 pseudovirus)	production of the cytokines in lymph nodes [1]	further results
CCn1nc(C)cc1C(=O)Nc1nc2cc(C(N)=O)cnc2n1C/C=C/Cn1c(NC(=O)c2cc(C)nn2CC)nc2cc(C(N)=O)cc(OCCCN3CCNCC3)c21 [CF508, (E)-3-(4-(5-carbamoyl-2-(1-ethyl-3-methyl-1H-pyrazole-5-carboxamido)-7-(3-(piperazin-1-yl)propoxy)-1H-benzo[d]imidazol-1-yl)but-2-en-1-yl)-2-(1-ethyl-3-methyl-1H-pyrazole-5-carboxamido)-3H-imidazo[4,5-b]pyridine-6-carboxamide]	could not induce more potent neutralizing antibodies relative to Alum in the rabbits	–	–
CCn1nc(C)cc1C(=O)Nc1nc2cc(C(N)=O)ccc2n1C/C=C/Cn1c(NC(=O)c2cc(C)nn2CC)nc2cc(C(N)=O)cnc21 [CF502, (E)-3-(4-(5-carbamoyl-2-(1-ethyl-3-methyl-1H-pyrazole-5-carboxamido)-1H-benzo[d]imidazol-1-yl)but-2-en-1-yl)-2-(1-ethyl-3-methyl-1H-pyrazole-5-carboxamido)-3H-imidazo[4,5-b]pyridine-6-carboxamide]	could not induce more potent neutralizing antibodies relative to Alum in the rabbits	–	–
CCn1nc(C)cc1C(=O)Nc1nc2cc(C(N)=O)cnc2n1C/C=C/Cn1c(NC(=O)c2cc(C)nn2CC)nc2cc(C(N)=O)cc(OCCCN3CCOCC3)c21 [CF501, (E)-3-(4-(5-carbamoyl-2-(1-ethyl-3-methyl-1H-pyrazole-5-carboxamido)-7-(3-morpholinopropoxy)-1H-benzo[d]imidazol-1-yl)but-2-en-1-yl)-2-(1-ethyl-3-methyl-1H-pyrazole-5-carboxamido)-3H-imidazo[4,5-b]pyridine-6-carboxamide]	–	can activate a large production of the cytokines; also recorded: more potently than cGAMP	T cell immune response in mice [2]: can strongly activate the T cell immune response in mice; antibody immune response to the HIV NHR trimer (N3G) (HIV NHR trimer (N3G)): can significantly enhance the antibody immune response in vaccinated mice; inflammation in the mice (transient activation, safety) [3]: does not cause inflammation in the mice
CCn1nc(C)cc1C(=O)Nc1nc2cc(C(N)=O)cnc2n1C/C=C/Cn1c(NC(=O)c2cc(C)nn2CC)nc2cc(C(N)=O)cc(OCCN3CCOCC3)c21 [CF510, (E)-3-(4-(5-carbamoyl-2-(1-ethyl-3-methyl-1H-pyrazole-5-carboxamido)-7-(2-morpholinoethoxy)-1H-benzo[d]imidazol-1-yl)but-2-en-1-yl)-2-(1-ethyl-3-methyl-1H-pyrazole-5-carboxamido)-3H-imidazo[4,5-b]pyridine-6-carboxamide]	could not induce more potent neutralizing antibodies relative to Alum in the rabbits	–	–
CCn1nc(C)cc1C(=O)/N=c1\n(C)c2cc(C(N)=O)cnc2n1C/C=C/Cn1/c(=N/C(=O)c2cc(C)nn2CC)n(C)c2cc(C(N)=O)cc(OCCCN3CCOCC3)c21 [CF512, (E)-3-((E) 4-((E)-5-carbamoyl-2-((1-ethyl-3-methyl-1H-pyrazole-5-carbonyl)imino)-3-methyl-7-(3-morpholinopropoxy)-2,3-dihydro-1H-benzo[d]imidazol-1-yl)but-2-en-1-yl)-2-((1-ethyl-3-methyl-1H-pyrazole-5-carbonyl)imino)-1-methyl-2,3-dihydro-1H-imidazo[4,5-b]pyridine-6-carboxamide]	could not induce more potent neutralizing antibodies relative to Alum in the rabbits	–	–
Nc1nc2c(ncn2[C@@H]2O[C@@H]3COP(=O)(O)O[C@H]4[C@@H](O)[C@H](n5cnc6c(N)ncnc65)O[C@@H]4COP(=O)(O)O[C@H]3[C@H]2O)c(=O)[nH]1 [cGAMP, 3′-3′ cGAMP, reference compound]	–	can activate a large production of the cytokines	–
